# According to ChEMBL document CHEMBL1201862, “PubChem BioAssay data set” (2004):
# Calls of active or inactive are those of the source.
# Key:
# [1] = cytotoxicity toward NIH3T3 fibroblasts, dose response, counter-screen, cell-based, ATP luminescence, mouse fibroblasts (AID 2010); format: functional;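 also: cells exposed to compound for about 90 hours before reading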
# cells = format: functional
# A-375 = test: MITF: Counter assay: A375 proliferation Measured in Cell-Based System Using Plate Reader - 2084-03_Inhibitor_Dose_DryPowder_Activity. [Related pubchem assays (depositor defined):AID488944]; format: functional; settings: Homo sapiens
# [2] = target: T1, Microphthalmia-associated transcription factor (Homo sapiens, UniProt O75030); test: TRPM1 promoter luciferase signal decrease, dose response, MITF inhibitor project, cell-based, SK-MEL-5, cherry-picked, set 3 (AID 493073); format: functional
# T1 sequence (O75030 whole entry): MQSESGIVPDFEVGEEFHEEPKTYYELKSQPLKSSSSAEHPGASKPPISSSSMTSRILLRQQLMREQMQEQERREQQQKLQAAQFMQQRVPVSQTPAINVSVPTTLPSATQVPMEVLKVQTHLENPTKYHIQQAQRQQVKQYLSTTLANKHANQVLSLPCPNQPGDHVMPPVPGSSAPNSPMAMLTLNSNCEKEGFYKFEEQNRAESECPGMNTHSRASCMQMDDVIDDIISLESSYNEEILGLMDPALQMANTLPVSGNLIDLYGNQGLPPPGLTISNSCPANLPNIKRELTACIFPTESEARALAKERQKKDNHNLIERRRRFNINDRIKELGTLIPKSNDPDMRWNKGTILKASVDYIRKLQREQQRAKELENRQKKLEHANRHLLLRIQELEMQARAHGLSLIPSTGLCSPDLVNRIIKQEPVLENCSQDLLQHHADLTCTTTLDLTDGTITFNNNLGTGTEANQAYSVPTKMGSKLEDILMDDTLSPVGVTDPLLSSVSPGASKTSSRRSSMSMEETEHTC
# [3] = microbe, parasite or virus in culture; format: functional; settings: Mycobacterium tuberculosis
# [4] = THP-1 cell cytotoxicity, dose response, cytotoxicity control for non-replicating M. tuberculosis project (AID 489025); format: functional
# [5] = Vero E6 cell cytotoxicity, dose response, cytotoxicity control for non-replicating M. tuberculosis project, secondary assay (AID 492998); format: functional, VeroE6; settings: Vero C1008
# [6] = HepG2 cell cytotoxicity, dose response, cytotoxicity control for non-replicating M. tuberculosis project (AID 489018); format: functional; settings: Mycobacterium tuberculosis
# [7] = target: T2, Heat shock factor protein 1 (Mus musculus, UniProt P38532); test: HSF1 potentiators in luciferase reporter cells, confirmation, cell-based, NIH3T3, luminescence, dose retest (AID 435004); format: functional;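 also: stress induced by proteasome inhibitor MG132 added 30 min after compound; luciferase reporter driven by HSF1 response element in NIH3T3 cells; actives raise luminescence as potentiators of the MG132 stress response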
# T2 sequence (P38532 whole entry): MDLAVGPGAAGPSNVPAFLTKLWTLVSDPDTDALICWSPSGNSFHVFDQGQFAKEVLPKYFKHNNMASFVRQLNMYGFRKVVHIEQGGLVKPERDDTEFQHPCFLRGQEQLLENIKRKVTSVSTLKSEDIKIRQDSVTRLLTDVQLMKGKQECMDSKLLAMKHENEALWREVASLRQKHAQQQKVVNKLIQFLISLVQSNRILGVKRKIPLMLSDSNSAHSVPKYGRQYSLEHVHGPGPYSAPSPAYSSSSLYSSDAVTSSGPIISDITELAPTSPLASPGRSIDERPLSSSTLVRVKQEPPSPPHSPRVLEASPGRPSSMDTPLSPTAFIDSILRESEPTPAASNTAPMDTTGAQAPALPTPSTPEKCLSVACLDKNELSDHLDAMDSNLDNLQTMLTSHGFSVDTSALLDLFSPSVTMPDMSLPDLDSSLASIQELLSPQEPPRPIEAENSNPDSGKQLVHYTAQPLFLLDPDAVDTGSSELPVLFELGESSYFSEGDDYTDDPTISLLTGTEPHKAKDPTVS
# [8] = inhibitors of intracellular T. cruzi replication, confirmation, NIH3T3 host cells, beta-gal luminescence (AID 2044); format: functional, cell-based;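 also: intracellular parasites grown in NIH/3T3 mouse fibroblasts as host cells; luminescent beta-galactosidase reporter signal from transgenic T. cruzi replicating inside host cells; inhibitors lower the luminescence signal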
# HEK293 [9] = test: cells; settings: Homo sapiens
# [10] = target: T3, Replicative DNA helicase DnaB (Mycobacterium tuberculosis, UniProt P9WMR3); test: DnaB intein splicing inhibitors, dose response, biochemical, cell-free fluorescence (AID 449749); format: functional
# T3 sequence (P9WMR3 whole entry): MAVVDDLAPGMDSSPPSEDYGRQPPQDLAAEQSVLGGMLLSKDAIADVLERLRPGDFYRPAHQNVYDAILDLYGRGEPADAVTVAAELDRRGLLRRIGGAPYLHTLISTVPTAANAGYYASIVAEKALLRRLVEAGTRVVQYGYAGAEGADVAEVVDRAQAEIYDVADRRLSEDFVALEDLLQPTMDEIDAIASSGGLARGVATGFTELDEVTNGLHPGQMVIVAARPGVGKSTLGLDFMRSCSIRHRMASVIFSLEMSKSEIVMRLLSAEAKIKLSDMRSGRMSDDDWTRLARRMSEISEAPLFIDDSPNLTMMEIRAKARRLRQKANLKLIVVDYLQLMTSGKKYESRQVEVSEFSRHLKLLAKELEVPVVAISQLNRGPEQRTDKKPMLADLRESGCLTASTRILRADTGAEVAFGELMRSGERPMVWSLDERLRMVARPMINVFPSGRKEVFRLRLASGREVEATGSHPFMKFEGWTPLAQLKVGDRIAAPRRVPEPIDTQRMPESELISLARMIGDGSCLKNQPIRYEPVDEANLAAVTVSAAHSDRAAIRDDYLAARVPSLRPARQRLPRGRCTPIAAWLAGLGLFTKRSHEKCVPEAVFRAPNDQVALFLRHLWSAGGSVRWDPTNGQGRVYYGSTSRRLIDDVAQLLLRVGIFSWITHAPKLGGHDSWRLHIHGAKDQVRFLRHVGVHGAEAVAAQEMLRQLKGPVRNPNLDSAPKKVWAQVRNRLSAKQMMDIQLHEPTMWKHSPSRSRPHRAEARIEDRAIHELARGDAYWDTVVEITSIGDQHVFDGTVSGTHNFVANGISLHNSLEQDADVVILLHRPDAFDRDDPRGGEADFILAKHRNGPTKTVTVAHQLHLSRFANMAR
# Protein RecA = target: T4, Protein RecA (Mycobacterium tuberculosis, UniProt P9WHJ3); test: Fluorescence Cell-Free Homogeneous Dose Retest to Identify Inhibitors of RecA-Intein Splicing Activity. [Related pubchem assays (depositor defined):AID2097, AID2223, AID489010, AID492950]; format: functional
# T4 sequence (P9WHJ3 whole entry): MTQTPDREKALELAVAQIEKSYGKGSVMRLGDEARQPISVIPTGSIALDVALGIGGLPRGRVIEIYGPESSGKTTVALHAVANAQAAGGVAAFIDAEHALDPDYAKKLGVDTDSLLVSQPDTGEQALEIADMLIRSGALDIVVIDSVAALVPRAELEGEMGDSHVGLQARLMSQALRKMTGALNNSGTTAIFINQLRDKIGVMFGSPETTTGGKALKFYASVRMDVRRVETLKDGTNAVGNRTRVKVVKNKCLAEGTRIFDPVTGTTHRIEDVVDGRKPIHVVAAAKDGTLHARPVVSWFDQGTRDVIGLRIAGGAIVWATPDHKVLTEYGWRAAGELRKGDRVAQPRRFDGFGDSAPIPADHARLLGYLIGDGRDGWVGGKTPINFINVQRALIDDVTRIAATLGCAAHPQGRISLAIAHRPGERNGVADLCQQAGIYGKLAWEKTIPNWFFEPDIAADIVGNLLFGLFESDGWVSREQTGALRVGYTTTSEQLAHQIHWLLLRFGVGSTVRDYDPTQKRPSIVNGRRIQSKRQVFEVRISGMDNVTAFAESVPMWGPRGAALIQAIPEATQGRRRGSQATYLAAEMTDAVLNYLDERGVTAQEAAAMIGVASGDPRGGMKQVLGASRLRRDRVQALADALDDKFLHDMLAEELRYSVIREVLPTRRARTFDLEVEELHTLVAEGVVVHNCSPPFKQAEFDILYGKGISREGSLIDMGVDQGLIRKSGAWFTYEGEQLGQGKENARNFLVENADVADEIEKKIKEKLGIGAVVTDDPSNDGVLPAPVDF
# HEK293 [11] = test: cells; settings: Homo sapiens; remark: listed apart in the source
# [12] = HepG2 cell cytotoxicity, dose response, cytotoxicity control, ATP luminescence, cherry-pick, activator set 2 (AID 1053143); format: functional, cell-based
# Cytochrome P450 3A4 = Cytochrome P450 3A4 (Homo sapiens, UniProt P08684);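 also: CYP3A4 tested as one member of a cytochrome P450 panel screen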
# [13] = target: Melanin-concentrating hormone receptor 1 (Homo sapiens, UniProt Q99705); test: Fluorescence-based counterscreen for antagonists of the G-protein coupled receptor 7 (GPR7): cell-based high throughput dose response assay to identify antagonists of the melanin-concentrating hormone receptor 1 (MCHR1).; format: functional
# [14] = target: T5, Neuropeptides B/W receptor type 1 (Homo sapiens, UniProt P48145); test: Fluorescence-based dose response cell-based high throughput screening assay to identify antagonists of the G-protein coupled receptor 7 (GPR7). [Related pubchem assays: 1952 (Screening assay (GPR7 antagonists).), 1880 (Summary AID.)]; format: functional
# T5 sequence (P48145 whole entry): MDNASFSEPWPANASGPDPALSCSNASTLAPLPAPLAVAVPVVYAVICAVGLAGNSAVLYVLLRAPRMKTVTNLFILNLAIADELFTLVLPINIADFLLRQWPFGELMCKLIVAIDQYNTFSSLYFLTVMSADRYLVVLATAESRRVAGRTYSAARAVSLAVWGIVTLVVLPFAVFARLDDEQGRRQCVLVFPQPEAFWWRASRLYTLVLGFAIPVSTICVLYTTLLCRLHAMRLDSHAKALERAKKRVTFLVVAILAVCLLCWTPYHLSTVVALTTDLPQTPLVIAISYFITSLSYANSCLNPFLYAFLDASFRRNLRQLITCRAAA
# Escherichia coli = test: microbe, parasite or virus in culture
# Streptococcus = test: Group A Streptococcus viability loss, dose response, counter-screen for streptokinase expression inhibitor project, luminescence, BacTiterGlo (AID 1915); format: functional, organism-based;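 also: potency for reduction of bacterial viability or growth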
# [15] = test system: Streptococcus sp. 'group A'; test: growth inhibition of control SK(-) GAS strain, dose response, counter-screen for streptokinase expression inhibitor project, luminescence, kanamycin, BacTiterGlo, confirmation (AID 1900); format: functional, organism-based
# Streptokinase A = target: T6, Streptokinase A (Streptococcus pyogenes serotype M1, UniProt P10520); test: S. pyogenes streptokinase expression inhibitors, potency, dose response, plasminogen activation absorbance, OD405 (AID 1914); format: functional, Streptococcus pyogenes M1 GAS;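 also: secreted streptokinase activity via plasminogen activation per viability signal from cell pellet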
# T6 sequence (P10520 whole entry): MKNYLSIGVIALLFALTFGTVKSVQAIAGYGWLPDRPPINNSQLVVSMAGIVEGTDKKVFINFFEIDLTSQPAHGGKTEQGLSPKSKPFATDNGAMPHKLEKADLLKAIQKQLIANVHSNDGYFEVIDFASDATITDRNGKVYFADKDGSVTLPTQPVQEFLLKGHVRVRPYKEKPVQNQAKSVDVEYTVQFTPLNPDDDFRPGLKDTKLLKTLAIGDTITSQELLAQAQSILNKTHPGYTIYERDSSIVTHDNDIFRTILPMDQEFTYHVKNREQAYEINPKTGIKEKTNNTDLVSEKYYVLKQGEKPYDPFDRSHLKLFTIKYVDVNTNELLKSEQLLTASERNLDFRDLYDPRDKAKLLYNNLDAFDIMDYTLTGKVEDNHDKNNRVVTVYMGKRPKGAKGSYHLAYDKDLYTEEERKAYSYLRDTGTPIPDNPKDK
# Cytochrome P450 2C9 = Cytochrome P450 2C9 (Homo sapiens, UniProt P11712)
# Sequence of Cytochrome P450 2C9 (P11712 whole entry): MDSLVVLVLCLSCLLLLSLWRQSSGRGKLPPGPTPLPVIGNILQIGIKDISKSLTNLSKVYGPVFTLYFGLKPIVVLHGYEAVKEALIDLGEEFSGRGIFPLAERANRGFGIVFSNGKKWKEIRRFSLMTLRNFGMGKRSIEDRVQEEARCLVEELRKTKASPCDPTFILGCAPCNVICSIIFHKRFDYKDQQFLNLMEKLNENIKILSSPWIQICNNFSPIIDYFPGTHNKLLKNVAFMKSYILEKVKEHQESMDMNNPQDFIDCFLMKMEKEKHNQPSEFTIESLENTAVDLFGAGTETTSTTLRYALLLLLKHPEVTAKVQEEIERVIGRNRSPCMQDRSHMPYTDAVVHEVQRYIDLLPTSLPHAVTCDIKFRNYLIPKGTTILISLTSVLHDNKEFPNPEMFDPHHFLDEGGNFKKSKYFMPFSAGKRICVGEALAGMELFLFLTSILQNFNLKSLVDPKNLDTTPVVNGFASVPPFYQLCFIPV
# Sequence of Cytochrome P450 3A4 (P08684 whole entry): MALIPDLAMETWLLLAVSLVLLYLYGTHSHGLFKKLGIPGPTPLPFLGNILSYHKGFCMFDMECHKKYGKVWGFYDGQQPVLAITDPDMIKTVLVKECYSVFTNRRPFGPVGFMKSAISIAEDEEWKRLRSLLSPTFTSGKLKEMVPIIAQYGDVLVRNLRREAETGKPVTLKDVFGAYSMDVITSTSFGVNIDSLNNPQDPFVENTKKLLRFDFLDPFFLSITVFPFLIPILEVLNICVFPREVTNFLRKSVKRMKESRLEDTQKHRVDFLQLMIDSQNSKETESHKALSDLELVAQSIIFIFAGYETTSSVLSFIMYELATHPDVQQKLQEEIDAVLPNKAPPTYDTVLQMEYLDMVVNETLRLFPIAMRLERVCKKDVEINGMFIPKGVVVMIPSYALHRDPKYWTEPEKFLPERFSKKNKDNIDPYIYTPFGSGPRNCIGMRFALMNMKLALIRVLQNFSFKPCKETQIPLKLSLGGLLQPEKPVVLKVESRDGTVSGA
# Sequence of Melanin-concentrating hormone receptor 1 (Q99705 whole entry): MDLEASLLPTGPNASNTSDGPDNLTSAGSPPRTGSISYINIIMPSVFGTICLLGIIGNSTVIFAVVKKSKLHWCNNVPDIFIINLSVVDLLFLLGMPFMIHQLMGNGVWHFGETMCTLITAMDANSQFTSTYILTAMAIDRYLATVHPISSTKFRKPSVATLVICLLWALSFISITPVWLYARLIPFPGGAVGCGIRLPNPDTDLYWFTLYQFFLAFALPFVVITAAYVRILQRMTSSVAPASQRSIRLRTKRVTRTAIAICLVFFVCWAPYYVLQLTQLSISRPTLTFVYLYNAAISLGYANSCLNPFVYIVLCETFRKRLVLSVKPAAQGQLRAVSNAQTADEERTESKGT
structure (smiles),measurement,setting,value
CC(C)(C)c1ccc(Cn2c(=N)n(CC(O)c3ccco3)c3ccccc32)cc1 (stereo not given),EC50,[1],> 60 µM (not active)
same,IC50,cells,22 µM (active)
same,AC50,A-375,18.6 µM (active)
same,AC50,[2],11.8 µM (active)
same,CC50,[3],11.9 µM (active)
same,CC50,[4],9.05 µM (active)
same,CC50,[5],15.7 µM (active)
same,CC50,[6],9.26 µM (active)
same,EC50,[7],> 260 µM (inactive)
same,EC50,[8],2.12 µM (active)
COc1ccccc1NC(=O)c1cnc(SCC(=O)NCC2CCCO2)n(C)c1=O (stereo not given),EC50,HEK293 [9],> 59.6 µM (inactive)
same,AC50,[10],9.19 µM (active)
same,AC50,[2],8.88 µM (active)
same,EC50,Protein RecA,10.8 µM (active)
same,EC50,HEK293 [11],> 59.6 µM (inactive)
same,AC50,[12],42.4 µM (active)
Cc1ccccc1Oc1ncnc2oc(-c3ccccc3)cc12,AC50,Cytochrome P450 3A4,inconclusive
same,IC50,[13],24.3 µM (not active)
same,IC50,[14],> 43.8 µM (not active)
CO[C@H]1C=CO[C@@]2(C)Oc3c(C)c(O)c4c(O)c(c(C=NN5CCN(C)CC5)c(O)c4c3C2=O)NC(=O)C(C)=CC=C[C@H](C)[C@H](O)[C@@H](C)[C@@H](O)[C@@H](C)[C@H](OC(C)=O)[C@@H]1C,AC50,Escherichia coli,14.8 µM (active)
same,EC50,Streptococcus,< 0.06 µM (active)
same,EC50,[15],< 0.06 µM (active)
O=C(Nc1ccccc1F)c1ccc([N+](=O)[O-])s1,AC50,Escherichia coli,27.5 µM (active)
same,EC50,[1],> 30 µM (not active)
same,IC50,cells,4.91 µM (active)
same,CC50,[4],28.8 µM (active)
same,CC50,[5],> 20 µM (active)
same,EC50,[8],0.614 µM (active)
Fc1ccc(-n2cc(-c3ccccc3)c3c(S)ncnc32)cc1,EC50,HEK293 [9],> 59.6 µM (inactive)
same,EC50,Streptococcus,> 150 µM (not active)
same,EC50,[15],12.1 µM (active)
same,EC50,Streptokinase A,> 150 µM (not active)
same,EC50,HEK293 [11],> 59.6 µM (inactive)
CCOC(=O)N1CCN(CC(=O)c2ccc3c(c2)CCN3)CC1,AC50,Cytochrome P450 3A4,inconclusive
same,AC50,Cytochrome P450 2C9,17.8 µM (inconclusive)
